Source: patent US10266564B2, “Cationic lipid cordiarimide hybrid compounds and a process for preparation thereof” (COUNCIL OF SCIENTIFIC & INDUSTRIAL RESEARCH, priority 2014, dated 2019)
“Also recorded” adds a separate entry of the source.

Legend:
[1] = system: HepG2, NH/3T3, PC-3, MCF-7 cell lines; assay: MTT assay, summary over the cell line panel; type: cell-based; conditions: across tested cell lines
Protocol: The human cancer cell lines e.g. HepG2 (hepatocellular carcinoma, ATCC® HB-8065™), PC-3 (human prostate cancer cells, ATCC® CRL-1435™), MCF-7 (breast adenocarcinoma, ATCC® […]), and mouse embryo fibroblasts (NIH/3T3, ATCC® CRL-1658™), used in the present study were obtained from the ATCC (American Type Culture Collection, USA and maintained in RPMI 1640 (Roswell Park Memorial Institute, Merck) with 10% FBS (Merck), supplemented with 1% antibiotic and antimycotic solution (Gibco, USA) at 37° C. in a humidified incubator with 5% CO2. All stock solutions of the compounds were prepared in cell culture grade DMSO (dimethyl sulfoxide) and stored at −20° C. Compounds were diluted in culture media prior to use in experiments. Annexin V-FITC apoptosis detection kits were purchased from Calbiochem. MTT dye was procured from Sigma-Aldrich. All the flow cytometry experiments were performed using a FACScan (Becton Dickinson, Mountain View, Calif.) flow cytometer, equipped with a single 488 nm argon laser.
Cell viability was assessed by MTT assay, which is based on the reduction of MTT by mitochondrial dehydrogenases of viable cells to form a purple formazan product. Briefly, cells (5-6×10^3/well) were plated in 96 well plates. After incubating overnight, the cells were treated with […] different concentrations (100, 50, 20, 10, 5, 2.5, 1.25 μM) in triplicates with the cationic lipidated cordiarimide and intermediates for 48 h. Subsequently, 10 μL of MTT (10 mg/mL) was added to each well and incubated for 3 h. The MTT formazan formed by viable cells was dissolved in 100 μL of DMSO and shaken for 10 min. The absorbance was measured on an ELISA reader. Each test was repeated at least three times. The concentration of the compound which gives the 50% growth inhibition value corresponding to IC50, was calculated using GraphPad prism 5 software. In the present invention we have screened 26 lipidated cordiarimides and the results are described in table 1.

HepG2 cells = assay: Cell cycle analysis, PI staining by flow cytometry; type: cell-based, human; conditions: HepG2, 24 h, 5, 10, and 20 mM as printed
Protocol: For cell cycle distribution studies after treatment with different molar concentrations of 8i and 8k, HepG2 cells were fixed overnight in 70% ethanol, rehydrated in PBS with ribonuclease A (100 μg/ml) and Triton-X (1%) for 30 min at room temperature then PI (at 50 μg/ml) was added and incubated in the dark for 30 min and analyzed with a flow cytometer. Experiments were repeated two times independently.

T4 DNA ligase = target: T1, T4 DNA ligase (Enterobacteria phage T4, UniProt P00970); assay: Ligation assay, T4 DNA ligase control; type: biochemical; conditions: 5 μM
T1 sequence (P00970 1-487): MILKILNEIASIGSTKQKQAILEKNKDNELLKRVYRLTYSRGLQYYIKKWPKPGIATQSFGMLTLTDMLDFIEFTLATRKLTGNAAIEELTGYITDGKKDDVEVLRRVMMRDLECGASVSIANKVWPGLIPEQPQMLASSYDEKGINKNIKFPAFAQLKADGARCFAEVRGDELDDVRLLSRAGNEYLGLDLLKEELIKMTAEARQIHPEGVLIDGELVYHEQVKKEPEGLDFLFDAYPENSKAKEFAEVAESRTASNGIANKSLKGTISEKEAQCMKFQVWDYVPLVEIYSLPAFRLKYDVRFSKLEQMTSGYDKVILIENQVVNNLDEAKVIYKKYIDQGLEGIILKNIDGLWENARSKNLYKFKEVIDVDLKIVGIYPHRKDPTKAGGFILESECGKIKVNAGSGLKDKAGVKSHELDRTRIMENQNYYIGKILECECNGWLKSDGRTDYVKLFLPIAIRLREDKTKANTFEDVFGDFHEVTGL
Description: (§1) The ligation assay was done strictly following the assay protocol described in Xi Chen et. al, Cancer Res 2008; 68(9):3169-3177. The DNA molecules 52 mer (5′-3′), 28-mer (5′-3′) and 34-mer (5′-3′) were used to construct a double stranded nicked substrate for the ligase enzyme (FIG. 4). The 34-mer oligo was labelled with 32P-AMP to form a substrate for ligase and to form a ligase-AMP intermediate. During ligation, the ligase would transfer the AMP to the nick forming a phosphodiester bond and seal the nick. The ligated DNA molecule would be larger in size and run higher up on a 7% Urea-containing denaturing acrylamide gel. If an inhibitor is added to the reaction mixture prior to the addition of ligase, this would lead to an inhibition of ligation and a corresponding loss of labelled ligated product in the gel. We would then be able to calculate the percentage of inhibition of ligation by estimating the amount of ligated product in the lane with no inhibitor and comparing it with the lanes containing different inhibitor molecules or with the same inhibitor molecule at different concentrations.

ligase IIIβ = target: T2, ligase IIIβ (Homo sapiens, UniProt P49916); assay: Ligation assay, DNA ligase IIIβ; type: biochemical
T2 sequence (P49916 43-949 isoform P49916-2 limits assumed): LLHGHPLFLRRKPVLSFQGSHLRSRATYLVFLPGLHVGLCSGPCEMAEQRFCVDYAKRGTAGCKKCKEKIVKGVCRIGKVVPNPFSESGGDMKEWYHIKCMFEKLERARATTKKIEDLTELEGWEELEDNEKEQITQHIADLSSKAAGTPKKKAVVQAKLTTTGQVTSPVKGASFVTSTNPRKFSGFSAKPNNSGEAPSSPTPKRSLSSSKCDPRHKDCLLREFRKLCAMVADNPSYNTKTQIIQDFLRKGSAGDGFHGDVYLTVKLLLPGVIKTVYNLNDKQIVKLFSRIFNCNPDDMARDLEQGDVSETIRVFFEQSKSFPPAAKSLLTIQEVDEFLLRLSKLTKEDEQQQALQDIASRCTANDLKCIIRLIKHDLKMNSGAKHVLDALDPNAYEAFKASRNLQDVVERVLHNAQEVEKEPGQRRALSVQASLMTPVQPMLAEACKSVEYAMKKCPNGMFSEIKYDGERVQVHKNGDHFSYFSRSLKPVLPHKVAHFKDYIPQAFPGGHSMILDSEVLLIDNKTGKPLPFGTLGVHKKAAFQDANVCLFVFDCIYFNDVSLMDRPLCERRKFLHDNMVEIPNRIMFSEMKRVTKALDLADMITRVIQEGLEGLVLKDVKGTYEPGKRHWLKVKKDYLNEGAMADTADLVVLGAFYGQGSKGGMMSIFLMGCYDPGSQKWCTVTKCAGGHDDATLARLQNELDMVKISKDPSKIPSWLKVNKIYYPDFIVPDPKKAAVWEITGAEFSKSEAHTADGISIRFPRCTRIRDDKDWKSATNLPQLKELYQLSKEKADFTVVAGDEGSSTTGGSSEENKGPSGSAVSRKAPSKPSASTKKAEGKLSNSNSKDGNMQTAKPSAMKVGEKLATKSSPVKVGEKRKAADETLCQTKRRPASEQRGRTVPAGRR
Description: as §1

## CCCCCCCCCCCC[N+](C)(CCCCCCCCCCCC)CC(=O)NC1CCC(=O)N(CC(=O)c2ccccc2)C1=O (centres unmarked) [Compound 8k, {[2,6-Dioxo-1-(2-oxo-2-phenyl-ethyl)-piperidin-3-ylcarbamoyl]-methyl}-Didodecyl-methyl-ammonium iodide]
[1]
  antiproliferative / anticancer activity (in words): selective anti-proliferative activity at lower concentrations
HepG2 cells
  effect on cell cycle progression: significant accumulation of cells in G0/G1 phase; also recorded: blocked the cell cycle in G0/G1 phase
T4 DNA ligase
  inhibition of T4 ligase: No appreciable inhibition
Ligase IIIβ; 5 μM
  inhibition at 5 µM: < 50%
Ligase IIIβ; at concentrations that kill HepG2 cells
  ligase III inhibition: 30%
